Assay results: US8298781B2, “Compositions and methods for characterizing and regulating olfactory sensation” (Duke University, priority 2007, dated 2012)

What was measured:
human subjects [1] = experiment: Human olfactory psychophysics: intensity rating by OR7D4 genotype; type: in vivo; settings: for intensity rating, OR7D4 RT/WM vs RT/RT subjects: 7-point scale, two concentrations pooled, N=100 RT/WM, N=255 RT/RT; for intensity rating, RT/S84N subjects vs RT/RT controls: N=7 RT/S84N; for reduction in odor intensity, OR7D4 WM/WM subjects: N=10 WM/WM, compared with RT/WM; for intensity rating, RT/P79L subjects vs RT/RT controls: N=30 RT/P79L
Protocol: (§1) Human olfactory psychophysics. All human subjects gave informed consent to participate in this study and were tested in a well-ventilated room. Normal human subjects (n=412; 218 female, 194 male; median age 34, age range 19-75) were pre-screened to exclude pregnant women and those with medical conditions causing general impairment of the sense of smell. All subjects completed two replicates of the test separated by at least 4 days. Odors were presented in amber vials as previously described (see, e.g., Keller, A., et al., Nat Neurosci 7, 337-338 (2004); herein incorporated by reference in its entirety) using bar-coded symbols to ensure that subjects were blind to the identity of all odors. The intensity and valence of 66 odors at two concentrations (“high” and “low”) and two solvents was rated using a 7-point scale. Thresholds were calculated using the single staircase method with seven reversals (see, e.g., Doty, R. L., et al., Chem Senses 20, 645-656 (1995); Doty, R. L. & Laing, D. G. in Handbook of Olfaction and Gustation (ed. Doty, R. L.) pp. 203-228 (Marcel Dekker, Inc., New York, 2003); each of which are herein incorporated by reference in their entireties). Threshold tests included both steroids as binary dilutions from […] (binary dilution 6) to 1: 134,217,728 (binary dilution 27). Subjects who could not reliably distinguish a 1:64 dilution of androstenone and androstadienone from solvent were operationally defined as anosmic to these odorous steroids, although it could not be excluded that these subjects could detect higher concentrations of these steroids (see, e.g., Bremner, E. A., et al., Chem Senses 28, 423-432 (2003); herein incorporated by reference in its entirety). Odor profiling used the method established by Dravnieks, et al. (see, e.g., Dravnieks, A., et al., Science 218, 799-801 (1982); herein incorporated by reference in its entirety).
(§2) Stimuli for olfactory psychophysics. All odors were presented as one ml of an odor dilution in either propylene glycol or paraffin oil in 20 ml amber glass vials. All of these compounds were used in the intensity and valence rating portion of the smell test.
(§3) Olfactory ratings. The intensity and valence of 66 odors were rated at two different concentrations (high and low) and the intensity and valence of the two solvents (paraffin oil and propylene glycol) was rated three times. Prior to these ratings, six stimuli that represented the spectrum of intensity and valence of the stimuli used in the study were presented to allow the subjects to calibrate the usage of the scale. The subjects were unaware that the six first stimuli served that purpose. After the rating of the 66 odors at two concentrations and the rating of the solvents, 15 stimuli that were presented earlier in the experiment were repeated to test for the effect of adaptation and olfactory fatigue on the ratings. The subjects were not aware that the last 15 stimuli served this purpose. These 15 stimuli and the six first stimuli were not included in the analysis presented here. […] The 15 control stimuli and their concentrations were as follows:
(§4) In addition there was a button on the screen labeled “I can't smell anything” and a button labeled “Don't Know”. If the “Don't Know” button was pressed, no rating was recorded. If the “I can't smell anything” button was pressed, a 0 was recorded for the intensity rating and no rating was recorded for the valence rating. The other ratings were transformed according to the following scheme:
(§5) • Extremely Weak=1 • Very Weak=2 • Slightly Weak=3 • Neither Weak nor Strong=4 • Slightly Strong=5 • Very Strong=6 • Extremely Strong=7 Valence Rating • Extremely Unpleasant=1 • Very Unpleasant=2 • Slightly Unpleasant=3 • Neither Unpleasant nor Pleasant=4 • Slightly Pleasant=5 • Very Pleasant=6 • Extremely Pleasant=7
(§6) Averages for the ratings of the different genotypes were calculated. […]

human subjects [2] = experiment: Human olfactory psychophysics: valence rating by OR7D4 genotype; type: in vivo; settings: for valence rating, OR7D4 RT/WM vs RT/RT subjects: 7-point scale, two concentrations pooled; for valence rating, RT/S84N subjects vs RT/RT controls: N=7 RT/S84N; for valence rating of OR7D4 WM/WM subjects relative to solvent propylene glycol: N=10 WM/WM; for valence rating, RT/P79L subjects vs RT/RT controls: N=30 RT/P79L
Protocol: as §1, §2, §3, §4, §5, §6

cortisol levels = settings: Wyart et al. 2007; cited from earlier work
human subjects [3] = experiment: Human olfactory psychophysics: odor profiling with 146 descriptors; type: in vivo; settings: androstenone 1/10,000
Protocol: Human olfactory psychophysics. All human subjects gave informed consent to participate in this study and were tested in a well-ventilated room. Normal human subjects (n=412; 218 female, 194 male; median age 34, age range 19-75) were pre-screened to exclude pregnant women and those with medical conditions causing general impairment of the sense of smell. All subjects completed two replicates of the test separated by at least 4 days. Odors were presented in amber vials as previously described (see, e.g., Keller, A., et al., Nat Neurosci 7, 337-338 (2004); herein incorporated by reference in its entirety) using bar-coded symbols to ensure that subjects were blind to the identity of all odors. The intensity and valence of 66 odors at two concentrations (“high” and “low”) and two solvents was rated using a 7-point scale. Thresholds were calculated using the single staircase method with seven reversals (see, e.g., Doty, R. L., et al., Chem Senses 20, 645-656 (1995); Doty, R. L. & Laing, D. G. in Handbook of Olfaction and Gustation (ed. Doty, R. L.) pp. 203-228 (Marcel Dekker, Inc., New York, 2003); each of which are herein incorporated by reference in their entireties). Threshold tests included both steroids as binary dilutions from […] (binary dilution 6) to 1: 134,217,728 (binary dilution 27). […]
Assigning descriptors to odors. Subjects assessed the quality of six odors using an odor profiling method that has shown to produce stable profiles of odorants. […] Odor profiling typically took five minutes per odorant and was performed as a computer-controlled selftest in which the subject's responses were directly recorded. […] The descriptors used to describe the other four odors (vanillin, pentadecalactone, androstenone, and propylene glycol) were evaluated. […]

humans = settings: literature; cited from earlier work

Compound | intensity rating, OR7D4 RT/WM vs RT/RT subjects (human subjects [1]) | intensity rating, RT/S84N subjects vs RT/RT controls (human subjects [1]) | reduction in odor intensity, OR7D4 WM/WM subjects (human subjects [1]) | intensity rating, RT/P79L subjects vs RT/RT controls (human subjects [1]) | valence rating, OR7D4 RT/WM vs RT/RT subjects (human subjects [2]) | valence rating, RT/S84N subjects vs RT/RT controls (human subjects [2]) | valence rating of OR7D4 WM/WM subjects relative to solvent propylene glycol (human subjects [2]) | valence rating, RT/P79L subjects vs RT/RT controls (human subjects [2]) | cortisol levels in women smelling the odor vs women not smelling it (cortisol levels) | use of descriptor "sickening", OR7D4 RT/WM vs RT/RT subjects (human subjects [3]) | use of descriptor "vanilla", OR7D4 RT/WM vs RT/RT subjects (human subjects [3]) | humans fitting the criteria of specific anosmia (humans) [%] | humans with reduced sensitivity (humans)
C[C@@]12C=CC[C@H]1[C@@H]1CCC3=CC(=O)CC[C@]3(C)[C@H]1CC2 [androstadienone, androsta-4,16-dien-3-one] | less intense | more intense | more marked | less intense | more pleasant | less pleasant | more unpleasant than the solvent | more pleasant | maintained at higher levels | – | – | – | –
C[C@]12CCC(=O)C[C@@H]1CC[C@@H]1[C@@H]2CC[C@]2(C)C=CC[C@@H]12 [androstenone, 5α-androst-16-en-3-one] | less intense | more intense | more marked | less intense | more pleasant | less pleasant | more unpleasant than the solvent | more pleasant | – | less likely | more likely | 6 | Up to 30%
